Experimental data: paper PMC3006138, “Fexinidazole – A New Oral Nitroimidazole Drug Candidate Entering Clinical Development for the Treatment of Sleeping Sickness” (PLoS Neglected Tropical Diseases, 2010)
Values joined by “and” are separate entries in the source; they are usually repeats but may differ in a detail not shown here. Equal entries are not always repeated.

Key:
T. b. gambiense 130R = assay: Acute infection mouse model; assay type: in vivo; conditions: 4 mg/kg×4 days ip
Procedure: (§1) Female NMRI mice were infected via intraperitoneal injection with bloodstream forms of T. b. rhodesiense STIB900 or T. b. gambiense 130R and treated with test drugs daily for 4 consecutive days, starting on day 3 or 7 after infection, respectively, or with bloodstream forms of T. b brucei GVR35 and treated daily from day 21 after infection for 5 days. Parasitemia was evaluated by tail blood examination and surviving, aparasitaemic mice at 60, 90, or 180 days, respectively, were considered cured.

[1] = tested on: T. b. gambiense (STIB 930); assay: In vitro trypanocidal assay (Alamar Blue); assay type: cell-based, Trypanosoma brucei gambiense; conditions: Trypanosoma brucei, 72 h
Procedure: Parasites were cultured with or without the test article at a concentration of 3×10^4/mL in Minimal Essential Medium, according to Baltz et al., with the following modifications: 0.2 mM 2-mercaptoethanol, 1 mM Na-pyruvate, 0.5 mM hypoxanthine and 15% heat inactivated horse serum at 37°C in 5% CO2 in 96-well microtitre plates for 72 h. 10 µL of Alamar Blue was added for the final 3 h to determine viability. The assay was assessed by reading the fluorescence in each well at an excitation wavelength of 536 nm and at an emission wavelength of 588 nm. The IC50 values were calculated from the sigmoidal inhibition curves. For cytotoxicity, 4×10^4/mL L-6 rat skeletal myoblast cells were used, and incubations and assessments carried out as above.

[2] = tested on: T. b. rhodesiense (STIB 900); assay: In vitro trypanocidal assay (Alamar Blue); assay type: cell-based, Trypanosoma brucei rhodesiense; conditions: Trypanosoma brucei, 72 h
Procedure: (§2) 10 µL of Alamar Blue was added for the final 3 h to determine viability. […] The IC50 values were calculated from the sigmoidal inhibition curves. For cytotoxicity, 4×10^4/mL L-6 rat skeletal myoblast cells were used, and incubations and assessments carried out as above.

T. b. brucei GVR35 [3] = assay: Chronic (stage 2) infection mouse model; assay type: in vivo
Procedure: as §1

L-6 rat myoblast cells = assay: Cytotoxicity assay; assay type: cell-based; conditions: 72 h
Procedure: as §2

[4] = stage 2 HAT patients; cited from earlier work
[5] = tested on: MDR1 (human, transfected); assay: MDR1-MDCK permeability; conditions: dog, MDCK-MDR1
Procedure: (§3) Caco-2 [36] or MDR1-MDCK (Madin Darby canine kidney cells transfected with the human multidrug resistance MDR1 gene) cell monolayers were grown to confluence on collagen-coated, microporous, polycarbonate membranes in 12-well microtitre plates. The buffer for the donor chamber was Hanks balanced salt solution with 10 mM HEPES and 15 mM glucose at pH 7.4. The buffer in the receiver chamber contained the same with the addition of 1% bovine serum albumin (BSA). The test article was added at 5 µM in the assay buffer. […] After 2 h, duplicate aliquots were taken from the donor and receiver chambers and assayed via LC/MS. The apparent permeability and recovery were calculated using standard methods.
(§4) The objective of this study was to determine the bi-directional MDR1-MDCK permeability and efflux limited absor ption potential of thr ee test compounds. […]
(§5) 4. Th e buff er in th e r ecei ver cha m ber a l so con t a in ed 1% Bovi n e Ser um Al bumin ( BSA) . Th e test compound dosing concentrations were 5 µM in th e a ssay bu f fer . […] After two hours, a l iquot s wer e t a ken fr om th e r ecei ver an d don or cha m ber s. E a ch det erm ina ti on wa s per for m ed in dupl i cat e. Th e Lucifer Yellow flux was also measur ed for each mon olayer after bein g subjected to th e test compoun ds to en sur e n o damage was in flicted to th e cell mon olayer s durin g th e flux per iod. All samples wer e assayed by LC/MS/MS usin g electrospray ionization. Analytical conditions are outlined in Attachment I. The apparent permeability, Papp, and per cen t r ecover y wer e calculated as follows: […]
(§6) dCr /dt is th e slope of th e cumulative con cen tration in th e r eceiver compartment ver sus time in µM s -1. […]

human MDR1 = assay: MDR1-MDCK permeability; conditions: dog, MDCK-MDR1
Procedure: as §3, §4, §5, §6

Caco-2 permeability = conditions: human, Caco-2
Procedure: as §3
(§7) The objective of this study was to determine the bi-directional Caco-2 permeability and efflux limited absorption poten tial of thr ee test compoun ds. […]
(§8) 4 . […] Th e test compound dosing concentrations were 5 µM in th e a ssay bu f fer . […] After two hours, a l iquot s wer e t a ken fr om th e r ecei ver an d don or cha m ber s. E a ch det erm ina ti on wa s per for m ed in dupl i cat e. Th e Lucifer Yellow flux was also measur ed for each mon olayer after bein g subjected to th e test compoun ds to en sur e n o damage was in flicted to th e cell mon olayer s durin g th e flux per iod. All samples wer e assayed by LC/MS/MS usin g electrospray ionization. Analytical conditions are outlined in Attachment I. The apparent permeability, Papp, and per cen t r ecover y wer e calculated as follows:
(§9) Papp = (dCr /dt) x Vr/(AxC) (1)
(§10) P er cen t Rec o ver y = 1 0 0 x ( ( V r x C rfi n a l ) + (Vd x Cd fi n a l ))/(Vd x C N) (2) […]
as §6

T. b. brucei GVR35 [6] = assay: Chronic (stage 2) infection mouse model; assay type: in vivo; conditions: 40 mg/kg×1 ip, day 21
jejunum or liver = conditions: rat, in vivo; cited from earlier work
Salmonella typhimurium = tested on: Salmonella typhimurium; design: method as in ref 58 (Suter et al.); conditions: standard strains, ref 58 (Suter et al.); cited from earlier work
colon or liver = conditions: mouse, in vivo; cited from earlier work
rat liver DNA = conditions: in vivo; cited from earlier work
[7] = tested on: MDR1-MDCK cell monolayers; assay: MDR1-MDCK permeability; conditions: plate certification
Procedure: as §3, §4, §5, §6

Caco-2 cell monolayers = assay: in vitro; conditions: Caco-2
Procedure: as §3, §7, §8, §9, §10, §6

[8] = 15 mg/kg×5 days ip, separate experiment

Nc1nc(N)nc(Nc2ccc([As]3SCC(CO)S3)cc2)n1 (stereo not shown) [Melarsoprol, reference compound]
Cured/infected (T. b. gambiense 130R): 4/4
Mean relapse time (T. b. gambiense 130R): >90 days
IC50 [1]: 0.0015 µg/mL to 0.003 µg/mL and 4 nM to 6 nM
IC50 [2]: 4 to 9 nM
Cured/infected (T. b. brucei GVR35 [3]; 10 mg/kg×5 days ip): 2/8
Mean relapse time (T. b. brucei GVR35 [3]; 10 mg/kg×5 days ip): >96.6 days
Cured/infected (T. b. brucei GVR35 [3]; [8]): 4/5
Mean relapse time (T. b. brucei GVR35 [3]; [8]): >180 days
cure (T. b. brucei GVR35 [3]; five daily ip injections of 15 mg/kg): 100%
IC50 (L-6 rat myoblast cells): 1.3 µg/mL and 3.3 µM
treatment-related mortality [4]: ~5%

C[C@H]1O[C@@H](O[C@H]2[C@@H](O)C[C@H](O[C@H]3[C@@H](O)C[C@H](O[C@H]4CC[C@@]5(C)[C@H](CC[C@@H]6[C@@H]5C[C@@H](O)[C@]5(C)[C@@H](C7=CC(=O)OC7)CC[C@]65O)C4)O[C@@H]3C)O[C@@H]2C)C[C@H](O)[C@@H]1O [Digoxin, reference compound]
efflux ratio [5]: 68.8
Papp A→B (human MDR1): 0.13 ×10⁻⁶ cm/s
Papp B→A (human MDR1): 8.83 ×10⁻⁶ cm/s
Papp A→B (Caco-2 permeability): 0.53 ×10⁻⁶ cm/s
Papp B→A (Caco-2 permeability): 10.4 ×10⁻⁶ cm/s
efflux ratio (Caco-2 permeability): 19.6

N=C(N)c1ccc(/N=N/Nc2ccc(C(=N)N)cc2)cc1 [Diminazene, Diminazine diaceturate]
Cured/infected (T. b. brucei GVR35 [6]): 0/4
Mean relapse time (T. b. brucei GVR35 [6]): 48.6 days

O=c1[nH]c2cc([N+](=O)[O-])cc(CNCP(=O)(O)O)c2[nH]c1=O [AMP397]
genetic damage in jejunum or liver (jejunum or liver): did not detect any genetic damage
bacterial mutagenicity (Salmonella typhimurium): positive Ames test results
mutagenicity in colon or liver (colon or liver): No evidence of mutagenicity
DNA binding in rat liver (rat liver DNA): failed to show any DNA binding

Lucifer Yellow [reference compound]
Papp [7]: 0.12 10-6 cm/s
Papp (Caco-2 cell monolayers): 0.23 10-6 cm/s
